The source of these data is patent publication US11180511B2, “Diagnosis, treatment and prevention of neurotensin receptor-related conditions” (Friedrich-Alexander-Universitat Erlangen-Nurnberg, priority 2016, dated 2021).

Data set [1] addresses hNTS1 (Homo sapiens, UniProt P30989). Nature of the data set: competitive radioligand binding, hNTS1. To be noted: [^3H]NT; CHO. Here is the method: (§1) Affinities for NTS1 and NTS2 as well as for dopaminergic and serotonergic receptors were determined in competitive radioligand binding assays using appropriate radioligands as shown in Table 1.
Data set [2] concerns the target hNTS2 (Homo sapiens, UniProt O95665). Kind of data set: competitive radioligand binding, hNTS2. To be noted: [^3H]NT (8-13); HEK. Here is the method:
as §1

Data set [3] deals with hD1 (Homo sapiens, UniProt P21728). Kind of data set: competitive radioligand binding, hD1. The following applies: [^3H] SCH 23990. The procedure: as §1
Sequence of hD1 (P21728 whole entry): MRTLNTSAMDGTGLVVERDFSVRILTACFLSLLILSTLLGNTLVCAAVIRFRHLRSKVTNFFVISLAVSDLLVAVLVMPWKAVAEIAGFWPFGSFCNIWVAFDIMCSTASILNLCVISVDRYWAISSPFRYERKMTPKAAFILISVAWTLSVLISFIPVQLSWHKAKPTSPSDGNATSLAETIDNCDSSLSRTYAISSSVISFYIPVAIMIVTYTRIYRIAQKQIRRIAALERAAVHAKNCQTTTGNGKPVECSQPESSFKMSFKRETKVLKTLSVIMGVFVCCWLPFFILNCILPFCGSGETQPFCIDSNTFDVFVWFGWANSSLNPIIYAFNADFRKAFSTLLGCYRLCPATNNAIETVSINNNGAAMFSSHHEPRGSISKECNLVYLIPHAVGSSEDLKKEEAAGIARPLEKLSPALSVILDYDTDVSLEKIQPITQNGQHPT
For data set [4], the target named is hD5 (Homo sapiens, UniProt P21918). Nature of the data set: competitive radioligand binding, hD5. The following applies: [^3H] SCH 23990. The procedure:
as §1

For data set [5], the target named is hD2long (Homo sapiens, UniProt P14416). Nature of the data set: competitive radioligand binding, hD2long. To be noted: [^3H] spiperone. Here is the method: as §1
Sequence of hD2long (P14416 whole entry): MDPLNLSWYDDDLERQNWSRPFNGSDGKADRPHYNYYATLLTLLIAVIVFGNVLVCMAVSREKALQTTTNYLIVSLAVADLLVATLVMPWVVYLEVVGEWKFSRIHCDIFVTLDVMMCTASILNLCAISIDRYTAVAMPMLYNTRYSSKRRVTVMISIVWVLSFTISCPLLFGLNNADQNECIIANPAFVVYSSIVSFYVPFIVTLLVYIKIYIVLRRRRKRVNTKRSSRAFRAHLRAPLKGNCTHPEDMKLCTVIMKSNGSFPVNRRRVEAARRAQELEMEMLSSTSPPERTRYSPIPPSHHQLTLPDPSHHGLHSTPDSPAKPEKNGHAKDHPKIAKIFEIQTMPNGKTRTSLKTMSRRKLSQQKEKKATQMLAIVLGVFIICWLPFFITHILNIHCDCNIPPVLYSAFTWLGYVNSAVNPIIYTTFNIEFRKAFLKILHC
Data set [6] has as its target hD2short (Homo sapiens, UniProt P14416). Kind of data set: competitive radioligand binding, hD2short. To be noted: [^3H] spiperone. Here is the method: as §1
For data set [7], the target named is hD3 (Homo sapiens, UniProt P35462). Nature of the data set: competitive radioligand binding, hD3. To be noted: [^3H] spiperone. Here is the method:
as §1

For data set [8], the target named is T1, hD4.4 (Homo sapiens, UniProt P21917).
T1 sequence (P21917 1-419): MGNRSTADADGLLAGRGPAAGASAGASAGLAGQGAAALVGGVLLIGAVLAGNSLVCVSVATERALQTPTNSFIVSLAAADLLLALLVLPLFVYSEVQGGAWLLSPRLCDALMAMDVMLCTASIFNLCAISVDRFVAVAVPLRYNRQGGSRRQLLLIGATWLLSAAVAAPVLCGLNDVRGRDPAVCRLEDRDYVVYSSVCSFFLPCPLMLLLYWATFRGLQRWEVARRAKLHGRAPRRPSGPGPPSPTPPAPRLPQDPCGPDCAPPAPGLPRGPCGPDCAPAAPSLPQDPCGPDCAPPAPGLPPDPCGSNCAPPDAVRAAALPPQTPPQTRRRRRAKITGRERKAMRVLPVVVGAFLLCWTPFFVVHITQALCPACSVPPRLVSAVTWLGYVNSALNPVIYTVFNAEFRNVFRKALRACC
Nature of the data set: competitive radioligand binding, hD4.4. The following applies: [^3H] spiperone. Here is the method:
as §1

For data set [9], the target named is T2, p5-HT1A (Sus scrofa, UniProt A0A4X1UTF5).
T2 sequence (A0A4X1UTF5 1-422): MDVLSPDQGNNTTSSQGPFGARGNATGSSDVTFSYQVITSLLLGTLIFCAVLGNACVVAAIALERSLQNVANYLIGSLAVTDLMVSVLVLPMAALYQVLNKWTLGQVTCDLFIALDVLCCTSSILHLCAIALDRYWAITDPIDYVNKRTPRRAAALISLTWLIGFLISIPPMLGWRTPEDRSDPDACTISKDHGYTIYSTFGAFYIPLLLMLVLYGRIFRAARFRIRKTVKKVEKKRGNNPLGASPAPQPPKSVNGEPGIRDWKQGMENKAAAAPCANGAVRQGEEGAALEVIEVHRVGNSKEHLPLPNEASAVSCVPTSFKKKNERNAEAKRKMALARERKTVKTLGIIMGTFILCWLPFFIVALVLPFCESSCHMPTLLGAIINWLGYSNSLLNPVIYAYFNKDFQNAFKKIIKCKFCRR
Kind of data set: competitive radioligand binding, p5-HT1A. The following applies: [^3H] WAY600135. Here is the method:
as §1

Data set [10] has as its target h5-HT2 (Homo sapiens, UniProt P28223). Kind of data set: competitive radioligand binding, h5-HT2. The following applies: [^3H] ketanserin. Here is the method: as §1
Data set [11] addresses pα1. Kind of data set: competitive radioligand binding, pα1. The following applies: [^3H] prazosine.
A short description of data set [12]: Stability in human plasma. Format: in vitro ADME. To be noted: 37° C., up to 7 days. Here is the method: An aliquot of ^177Lu-14 (FAUC Lu469) in PBS (50 μL) was added to human plasma (200 μL) and incubated at 37° C. Aliquots (25 μL) were taken at various time intervals (1 h, 4 h, 24 h, 96 h, 7 days) and quenched with acetonitrile/0.1% TFA (1:1, 100 μL). The samples were centrifuged, and the supernatants were analyzed by radio-HPLC.

Data set [13] in a line: Determination of partition coefficient (log D7.4). The format is physicochemical. To be noted: 1-octanol/PBS pH 7.4, room temperature. The procedure:
The lipophilicity of ^177Lu-14 (FAUC Lu469) was assessed by determination of the water-octanol partition coefficient. 1-Octanol (0.5 mL) was added to a solution of approximately 25 kBq of ^177Lu-14 in PBS (0.5 mL, pH 7.4) and the layers were vigorously mixed for 3 min at room temperature. The tubes were centrifuged (14000 rpm, 1 min) and three samples of 100 μL of each layer were counted in a γ-counter (Wallac Wizard). The partition coefficient was determined by calculating the ratio cpm (octanol)/cpm (PBS) and expressed as log D74) log(cpmoctanol/cpmbuffer). The experiments were performed in triplicates. The log D7.4 value was determined to be −1.8±0.1 (mean value±standard deviation, n=6).

A short description of data set [14]: Biodistribution in xenografted nude mice, normal tissue. To be noted: i.v. The format is in vivo, Athymic nude mice (nu/nu). Here is the method:
(§2) Athymic nude mice (nu/nu) were obtained from Harlan Winkelmann GmbH (Borchen, Germany) at 4 weeks of age and were kept under standard conditions (12 h light/dark) with food and water available ad libitum. AsPC-1, PC-3 or HT29 cells were harvested and suspended in sterile PBS at a concentration of 2×10^7 cells/ml. Viable cells (2×10^6) in PBS (100 μL) were injected subcutaneously in the back. Two weeks after inoculation (tumor weight: 400-800 mg), the mice (about 10-12 weeks old with about 40 g body weight) were used for biodistribution studies.
(§3) The xenografted mice were injected with ^177Lu-14 (FAUC Lu469, 1 MBq/mouse) intravenously into the tail vein. The mice were sacrificed by cervical dislocation at 24 h and 48 h post-injection (p.i.). Tumors and other tissues (blood, lung, liver, kidneys, heart, brain, muscle and intestine) were removed and weighed. Radioactivity of the dissected tissues was determined using a γ-counter. Results were expressed as percentage of injected dose per gram of tissue (% ID/g), and tumor-to-organ ratios were calculated. Results are reported as percent injected dose per gram (% ID/g) in Table 2 and FIG. 1.

Data set [15] relates to HT29. Nature of the data set: Biodistribution in xenografted nude mice, HT29 tumor uptake. Format: in vivo, Athymic nude mice (nu/nu). To be noted: i.v. The procedure:
as §2, §3

Data set [16] concerns PC3. Nature of the data set: Biodistribution in xenografted nude mice, PC3 tumor uptake. The format is in vivo, Athymic nude mice (nu/nu). To be noted: i.v. The procedure: as §2, §3
For data set [17], the system named is AsPC1. Nature of the data set: Biodistribution in xenografted nude mice, AsPC1 tumor uptake. To be noted: for Uptake AsPC1 tumor: i.v. The format is in vivo, Athymic nude mice (nu/nu). Here is the method: as §2
The xenografted mice were injected with ^177Lu-14 (FAUC Lu469, 1 MBq/mouse) intravenously into the tail vein. […] Tumors and other tissues (blood, lung, liver, kidneys, heart, brain, muscle and intestine) were removed and weighed. Radioactivity of the dissected tissues was determined using a γ-counter. Results were expressed as percentage of injected dose per gram of tissue (% ID/g), and tumor-to-organ ratios were calculated. Results are reported as percent injected dose per gram (% ID/g) in Table 2 and FIG. 1.

Data set [18] deals with PC1-3 tumors. Kind of data set: Therapy study, PC1-3 tumors, single-dose administration. The format is in vivo, Nude mice. To be noted: single dose 30±9 MBq/animal. Here is the method: Nude mice bearing PC1-3 tumors at the back were used for the therapy study. One week after inoculation of the PC1-3 cells, ^177Lu-14 (FAUC Lu469) was injected in four mice at a dose of 30±9 MBq/animal. Eight additional animals were injected with saline as control animals. The body weight and the tumor diameter was measured every three days. […] The tumor inhibition growth factor was 64% after 49 days.

In data set [19] the test system is AsPC-1 tumors (human pancreas adenocarcinoma). Nature of the data set: Therapy study, AsPC-1 tumors, single-dose and double-dose administration. Format: in vivo, Nude mice. Here is the method:
Nude mice bearing AsPC-1 tumors (human pancreas adenocarcinoma) at the back were used for the therapy study. One week after inoculation of the AsPC-1 cells, six mice were injected with a single dose of ^177Lu-14 (FAUC Lu469) (28±6 MBq/animal, group B, single-dose administration) at day 0 and another six animals were injected with a double-dose of ^177Lu-14 (FAUC Lu469) (2×29±4 MBq/animal, group C, double-dose administration), consisting of the first dose (29 MBq/animal) at the starting day of radiotherapy (day 0) and the second dose (29 MBq/animal) at day 10 after begin of treatment. Six additional animals were injected with saline as untreated control animals (group A). The body weight and the tumor diameter were measured five times a week.

Sequence of hNTS1 (P30989 whole entry): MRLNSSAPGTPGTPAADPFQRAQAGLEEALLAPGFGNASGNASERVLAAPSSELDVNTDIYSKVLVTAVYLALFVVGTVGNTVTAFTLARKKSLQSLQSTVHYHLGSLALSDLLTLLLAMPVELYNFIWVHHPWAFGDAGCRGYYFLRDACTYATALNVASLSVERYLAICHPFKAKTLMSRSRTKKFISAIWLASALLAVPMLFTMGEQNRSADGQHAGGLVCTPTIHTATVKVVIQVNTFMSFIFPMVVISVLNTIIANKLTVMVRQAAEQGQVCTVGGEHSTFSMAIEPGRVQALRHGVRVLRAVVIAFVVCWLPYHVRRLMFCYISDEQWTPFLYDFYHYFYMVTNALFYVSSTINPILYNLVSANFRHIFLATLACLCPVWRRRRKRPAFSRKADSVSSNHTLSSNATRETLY
Sequence of hNTS2 (O95665 whole entry): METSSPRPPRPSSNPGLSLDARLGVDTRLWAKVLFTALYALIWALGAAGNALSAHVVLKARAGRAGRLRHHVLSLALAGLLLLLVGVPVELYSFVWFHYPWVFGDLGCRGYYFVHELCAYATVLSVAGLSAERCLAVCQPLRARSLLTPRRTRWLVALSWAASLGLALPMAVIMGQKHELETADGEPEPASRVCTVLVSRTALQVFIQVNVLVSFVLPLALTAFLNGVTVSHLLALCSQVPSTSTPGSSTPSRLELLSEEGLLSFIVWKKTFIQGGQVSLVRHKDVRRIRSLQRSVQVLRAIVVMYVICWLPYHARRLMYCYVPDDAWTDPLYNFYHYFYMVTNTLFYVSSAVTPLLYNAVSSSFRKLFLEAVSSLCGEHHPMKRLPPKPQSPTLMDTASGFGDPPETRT
Sequence of hD3 (P35462 whole entry): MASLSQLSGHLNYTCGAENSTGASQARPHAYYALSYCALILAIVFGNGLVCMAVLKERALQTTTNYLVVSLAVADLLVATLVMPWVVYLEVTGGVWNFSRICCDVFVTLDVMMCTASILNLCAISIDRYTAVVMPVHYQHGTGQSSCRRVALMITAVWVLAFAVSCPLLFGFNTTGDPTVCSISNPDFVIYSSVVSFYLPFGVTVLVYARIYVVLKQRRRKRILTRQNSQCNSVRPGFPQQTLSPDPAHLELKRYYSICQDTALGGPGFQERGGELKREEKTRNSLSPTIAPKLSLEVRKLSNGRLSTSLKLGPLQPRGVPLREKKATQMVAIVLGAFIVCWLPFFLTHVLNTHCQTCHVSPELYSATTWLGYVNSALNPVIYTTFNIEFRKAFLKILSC
Sequence of hD2short (P14416 1-414 isoform P14416-2): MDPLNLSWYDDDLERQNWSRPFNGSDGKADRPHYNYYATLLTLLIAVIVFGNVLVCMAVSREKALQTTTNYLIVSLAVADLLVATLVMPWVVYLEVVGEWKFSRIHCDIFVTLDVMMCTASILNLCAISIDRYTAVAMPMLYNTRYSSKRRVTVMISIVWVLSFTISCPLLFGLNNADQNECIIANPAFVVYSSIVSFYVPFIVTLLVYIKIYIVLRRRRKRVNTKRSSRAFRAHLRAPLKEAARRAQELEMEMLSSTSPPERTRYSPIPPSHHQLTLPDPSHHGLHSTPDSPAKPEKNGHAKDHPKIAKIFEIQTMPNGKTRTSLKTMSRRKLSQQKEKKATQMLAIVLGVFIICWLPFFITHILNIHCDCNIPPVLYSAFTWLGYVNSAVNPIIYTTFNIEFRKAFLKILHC
Sequence of h5-HT2 (P28223 whole entry): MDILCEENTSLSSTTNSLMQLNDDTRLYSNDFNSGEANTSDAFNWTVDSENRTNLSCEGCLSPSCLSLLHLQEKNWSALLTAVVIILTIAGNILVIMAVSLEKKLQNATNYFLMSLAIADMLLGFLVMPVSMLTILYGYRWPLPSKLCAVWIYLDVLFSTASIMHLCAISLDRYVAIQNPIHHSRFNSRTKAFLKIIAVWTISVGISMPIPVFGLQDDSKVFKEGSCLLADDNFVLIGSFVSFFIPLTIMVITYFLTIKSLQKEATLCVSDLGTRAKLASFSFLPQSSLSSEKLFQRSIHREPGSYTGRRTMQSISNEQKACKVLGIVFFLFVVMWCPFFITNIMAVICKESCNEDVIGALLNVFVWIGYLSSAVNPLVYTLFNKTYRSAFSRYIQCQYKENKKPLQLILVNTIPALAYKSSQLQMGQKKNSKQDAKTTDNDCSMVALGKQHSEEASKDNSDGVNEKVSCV
Sequence of hD5 (P21918 whole entry): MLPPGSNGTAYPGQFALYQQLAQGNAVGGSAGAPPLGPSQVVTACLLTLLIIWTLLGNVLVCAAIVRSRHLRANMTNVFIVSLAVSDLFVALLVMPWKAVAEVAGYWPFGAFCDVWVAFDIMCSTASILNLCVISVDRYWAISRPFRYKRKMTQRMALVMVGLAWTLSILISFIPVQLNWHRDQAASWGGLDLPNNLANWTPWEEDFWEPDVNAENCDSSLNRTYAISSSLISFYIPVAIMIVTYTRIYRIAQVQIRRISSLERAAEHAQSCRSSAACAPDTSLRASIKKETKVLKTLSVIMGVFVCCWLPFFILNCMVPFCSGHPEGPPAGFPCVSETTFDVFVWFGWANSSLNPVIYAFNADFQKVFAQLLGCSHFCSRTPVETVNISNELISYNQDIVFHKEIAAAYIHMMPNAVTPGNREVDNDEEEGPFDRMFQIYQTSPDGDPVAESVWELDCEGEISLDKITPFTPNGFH

As a reminder, the Ki is a dissociation constant, usually derived from enzyme kinetics or from competition with a known ligand. Low values mean tighter binding, high ones weaker binding. Consider `COc1cccc(OC)c1-c1cc(C(=O)NC2(C(=O)O)C3CC4CC(C3)CC2C4)nn1-c1ccc(-c2cn(CCCN(C)C[C@@H](O)CNC(=O)CN3CCN(CC(=O)O)CCN(CC(=O)O)CCN(CC(=O)O)CC3)nn2)cc1C(C)C` (stereo partly drawn) [Compound 19], for which the Ki came to 1.6 nM in data set [1] and 59 nM in data set [2].
On the same counts, the results for `COc1cccc(OC)c1-c1cc(C(=O)NC2(C(=O)O)C3CC4CC(C3)CC2C4)nn1-c1ccc(-c2cn(CCCN(C)CCCNC(=O)CN3CCN(CC(=O)O)CCN(CC(=O)O)CCN(CC(=O)O)CC3)nn2)cc1C(C)C` (stereo not drawn) [Compound 13] are 1.9 nM and 100 nM.
Take `COc1cccc(OC)c1-c1cc(C(=O)NC2(C(=O)O)C3CC4CC(C3)CC2C4)nn1-c1ccc(-c2cn(CCCN(C)CCCNC(=O)CN3CCN(CC(=O)[O-])CCN(CC(=O)[O-])CCN(CC(=O)[O-])CC3)nn2)cc1C(C)C.[Lu+3]` (stereo not drawn) [Compound 14]: the Ki was 0.19 nM in data set [1]; 13 nM in data set [2]; more than 50000 nM in data set [3]; more than 50000 nM in data set [4]; more than 50000 nM in data set [5]; more than 50000 nM in [6]. The Ki in data set [7], in data set [8], in data set [9], in data set [10] and in data set [11] was more than 50000 nM in each case.
In the case of `COc1cccc(OC)c1-c1cc(C(=O)NC2(C(=O)O)C3CC4CC(C3)CC2C4)nn1-c1ccc(-c2cn(CCCN(C)CCCNC(=O)CN3CCN4CCN5CCN(CC3)CC(=O)[O][177Lu]([O]C(=O)C4)[O]C(=O)C5)nn2)cc1C(C)C` (stereo not drawn) [^177Lu-14], the “Stability in human plasma (degradation products by radio-HPLC)” value in data set [12] was “No degradation products were observed”. For the same compound, the “log D7.4” value in data set [13] is on record as −1.8±0.1. In data set [14] (24 h p.i.), this compound showed an Uptake blood of 0.36 % ID/g, an Uptake brain of 0.06 % ID/g, an Uptake femur of 0.89 % ID/g and an Uptake heart of 1.05 % ID/g. Also, in [14] (24 h p.i.), the Uptake intestine worked out at 1.40 % ID/g, the Uptake kidney is listed as 4.54 % ID/g, the Uptake liver turned out to be 11.61 % ID/g and the Uptake lung amounted to 4.15 % ID/g. In data set [14] (24 h p.i.), the Uptake muscle is 0.29 % ID/g and the Uptake spleen was found to be 2.40 % ID/g. Besides, in data set [14] (48 h p.i.), the Uptake blood came out at 0.14 % ID/g, the Uptake brain is 0.04 % ID/g, the Uptake femur amounted to 0.75 % ID/g and the Uptake heart turned out to be 0.56 % ID/g. In data set [14] (48 h p.i.), the Uptake intestine amounted to 0.77 % ID/g, the Uptake kidney is 2.48 % ID/g, the Uptake liver is 5.45 % ID/g and the Uptake lung was 1.23 % ID/g. Also, in data set [14] (48 h p.i.), the Uptake muscle came to 0.19 % ID/g and the Uptake spleen is given as 1.60 % ID/g. The “Uptake HT29 tumor” value in data set [15] (24 h p.i.) is reported as 18.64 % ID/g. Further, the “Uptake HT29 tumor” value in [15] (48 h p.i.) is 16.34 % ID/g. For the same compound, the “Uptake PC3 tumor” value in data set [16] (24 h p.i.) came to 15.57 % ID/g. Besides, in data set [16] (48 h p.i.), the “Uptake PC3 tumor” value is listed as 10.85 % ID/g. Also, the “Uptake AsPC1 tumor” value in data set [17] (24 h p.i.) came to 22.36 % ID/g. The “Uptake AsPC1 tumor” value in [17] (48 h p.i.) worked out at 14.41 % ID/g. The compound further came in with an AsPC1-tumor retention in data set [17] (day 7 p.i.) of 13.2±2.1 % ID/g. Further, the “tumor inhibition growth factor” value in [18] (after 49 days) is recorded as 64%. Further, in [18], the “survival versus untreated control animals” value is given as “significantly longer survival”; the “tumor growth and tumor size versus untreated control animals” value was “significantly inhibited tumor growth and a reduction in tumor size”. Besides, the “longer survival than untreated control animals” value in data set [19] (double-dose 2×29±4 MBq/animal (group C), day 0 and day 10) is listed as “+209%”. For the same compound, the “tumor growth and tumor size versus untreated control animals” value in data set [19] (single dose 28±6 MBq/animal (group B), between day 11 and 21, adjusted p=0.049) is “significant tumor growth inhibition and a reduction in tumor size”.
Consider `COc1cccc(OC)c1-c1cc(C(=O)NC2(C(=O)O)C3CC4CC(C3)CC2C4)nn1-c1ccc(-c2cn(CCCN(C)C[C@@H](O)CNC(=O)CN3CCN(CC(=O)[O-])CCN(CC(=O)[O-])CCN(CC(=O)[O-])CC3)nn2)cc1C(C)C.[Lu+3]` (stereo partly drawn) [Compound 20], for which the figures for the Ki in data set [1] and in [2] were 1.4 nM and 27 nM, respectively.
